The record followed here is patent US7727740B1, “Methods for determining whether a chemical agent modulates enzymatic activity of an L-2-hydroxy acid oxidase” (Merck Sharp & Dohme Corp., priority 2005, dated 2010).

Holding throughout (experiment): Km determination of hydroxy acid oxidase activity (DCIP-coupled)
Assay type in all cases: biochemical

For assay [1], the target named is T1, human Hao2 (Homo sapiens, UniProt Q9NYQ3).
T1 construct: made in house; host or cells: E. coli BL21-codonplus-RIPL
T1 sequence (Q9NYQ3 1-351): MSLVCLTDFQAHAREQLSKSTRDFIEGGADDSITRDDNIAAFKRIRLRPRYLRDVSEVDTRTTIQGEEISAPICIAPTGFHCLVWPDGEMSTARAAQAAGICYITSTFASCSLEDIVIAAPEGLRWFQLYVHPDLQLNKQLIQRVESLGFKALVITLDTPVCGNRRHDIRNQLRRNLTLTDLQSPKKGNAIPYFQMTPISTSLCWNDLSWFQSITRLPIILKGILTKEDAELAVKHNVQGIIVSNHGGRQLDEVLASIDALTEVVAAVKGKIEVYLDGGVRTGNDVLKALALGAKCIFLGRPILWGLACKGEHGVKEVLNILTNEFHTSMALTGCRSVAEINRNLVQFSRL
The note with it: human Hao2 enzyme activity against the substrate; FIG. 1A. On the procedure: (§1) The hydroxyl acid oxidase activity of the Hao enzymes was assayed for oxidation of the enzyme substrate 2-hydroxyoctanoate by monitoring the coupled reduction of 2,6-dichloroindophenol (DCIP) at 605 nm.
(§2) In order to determine the Km of the enzyme for a given substrate, 20 μl/well of various concentrations of the substrate 2-hydroxyoctanoate were diluted in the assay buffer (100 mM Kpi, 1 mM EDTA and 0.1% BSA) and 175 μl/well of 50 μM 2-6-dichloroindophenol (DCIP) diluted in the same assay buffer was added to a 96-well plate. The reaction was started by the addition of 5 μl/well of the Hao enzyme, and the change in A605 at room temperature (18° C.) was measured over time. An extinction coefficient of […] for DCIP at 605 nm may be used for all calculations. One unit of activity may be defined as the reduction of 1 μmol of DCIP in 1 min (see Jones, J. M., et al., J. Biol. Chem. 275:12590-12597, 2000).

Assay [2] addresses T2, mouse Hao3 (Mus musculus, UniProt Q9NYQ2, S203T).
T2 construct: made in house; host or cells: E. coli BL21-codonplus-RIPL
T2 sequence (Q9NYQ2 1-353 S203T): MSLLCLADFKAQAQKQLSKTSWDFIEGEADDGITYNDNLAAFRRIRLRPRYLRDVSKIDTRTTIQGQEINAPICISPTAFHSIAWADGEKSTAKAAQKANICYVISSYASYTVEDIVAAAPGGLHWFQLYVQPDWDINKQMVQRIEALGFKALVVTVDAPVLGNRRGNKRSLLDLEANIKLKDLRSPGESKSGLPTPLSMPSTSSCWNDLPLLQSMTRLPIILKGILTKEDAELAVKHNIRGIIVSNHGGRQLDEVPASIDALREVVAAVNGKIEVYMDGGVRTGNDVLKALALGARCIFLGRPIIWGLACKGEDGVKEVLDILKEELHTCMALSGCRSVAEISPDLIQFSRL
The conditions noted are these: mouse Hao3 enzyme activity against the substrate; FIG. 1C. The protocol:
as §1, §2

The target in assay [3] is T3, rat Hao2 (Rattus norvegicus, UniProt Q07523).
T3 sequence (Q07523 1-353): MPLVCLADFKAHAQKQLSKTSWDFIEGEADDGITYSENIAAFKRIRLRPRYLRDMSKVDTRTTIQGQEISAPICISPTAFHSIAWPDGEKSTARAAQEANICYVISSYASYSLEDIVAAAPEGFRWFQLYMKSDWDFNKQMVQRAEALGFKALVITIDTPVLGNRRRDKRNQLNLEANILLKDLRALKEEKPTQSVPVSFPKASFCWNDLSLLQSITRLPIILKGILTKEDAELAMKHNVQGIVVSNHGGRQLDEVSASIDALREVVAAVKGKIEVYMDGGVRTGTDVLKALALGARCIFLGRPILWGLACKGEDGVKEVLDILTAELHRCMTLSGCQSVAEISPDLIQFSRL
The note with it: rat Hao2 enzyme activity against the substrate; FIG. 1B. The protocol: as §1, §2

In the case of `CCCCCCC(O)C(=O)O` (stereo not drawn) [2-hydroxyoctanoate], the Km (as a rule, the concentration of substrate that gives half-maximal velocity) in assay [1] was determined as 735 µM; in assay [2], 76 µM; in assay [3] it was 43 µM.
